Experimental data taken from ChEMBL document CHEMBL3886663, “COMPOUNDS AND USES” (2016).

Target: T1, Leukotriene C4 synthase (Homo sapiens, UniProt Q16873)
T1 sequence (Q16873 whole entry): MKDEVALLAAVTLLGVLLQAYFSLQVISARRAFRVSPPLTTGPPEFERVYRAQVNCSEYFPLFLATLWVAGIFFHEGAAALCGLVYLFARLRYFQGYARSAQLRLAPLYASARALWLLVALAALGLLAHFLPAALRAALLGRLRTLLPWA
Assay: Recombinant human LTC4 synthase is expressed in […] and the purified enzyme is dissolved in 25 mM tris-buffer pH 7.8 supplemented with 0.1 mM glutathione (GSH) and stored at −80 °C. […] The buffer is used as background. Runs are performed in duplicates. […] The reaction is stopped after 1 min by addition of double the reaction volume of a stop solution (MeOH:H2O:acetic acid 70:30:1).

| Structure (SMILES) | IC50 [nM] |
| --- | --- |
| COc1cc(N(Cc2c(Cl)cccc2Cl)CC2CC2)cnc1C(=O)C1CC1C(=O)O (stereo not given) | 800 |
| COc1cc(N(Cc2cccc(C)c2)CC2CC2)cnc1C(=O)C1CC1C(=O)O (stereo not given) | 171 |
| COc1cc(N(Cc2ccc(C(F)(F)F)cc2F)CC2CC2)cnc1C(=O)C1CC1C(=O)O (stereo not given) | 53 |
| COc1cc(N(Cc2ccc(C)cc2)CC2CC2)cnc1C(=O)C1CC1C(=O)O (stereo not given) | 22 |
| COc1cc(N(Cc2cccc3ccccc23)CC2CC2)cnc1C(=O)C1CC1C(=O)O (stereo not given) | 66 |
| COc1cc(N(Cc2ccc(-c3ccccc3)cc2)CC2CC2)cnc1C(=O)C1CC1C(=O)O (stereo not given) | 2180 |
| COc1cc(N(CC2CC2)c2ccc(C)c3ccccc23)ncc1C(=O)C1CC1C(=O)O (stereo not given) | 56 |
| COc1cc(N(Cc2cc(Cl)cc3c2OCO3)CC2CC2)cnc1C(=O)C1CC1C(=O)O (stereo not given) | 588 |
| COc1cc(N(Cc2cc(F)cc3c2OCOC3)CC2CC2)cnc1C(=O)C1CC1C(=O)O (stereo not given) | 478 |
| COc1cc(N(CC2CC2)c2cccc3c(C)ccnc23)cnc1C(=O)C1CC1C(=O)O (stereo not given) | 445 |
